Tests used:
[1] = system: Staphylococcus epidermidis; experiment: MIC, broth microdilution (CLSI); assay type: cell-based; details: Staphylococcus epidermidis ATCC 51625, MRSE
[2] = system: S. aureus; experiment: pH-dependent MIC determination; assay type: cell-based; details: Staphylococcus aureus
Protocol: MICs were determined using a standard serial broth microdilution technique according to the CLSI guidelines. Briefly, bacterial strains were inoculated onto MHBII agar plates and were grown overnight at 37 °C. Next, 3 individual colonies from each strain were inoculated into 1 mL MHBII medium and propagated at 37 °C, 250 rpm overnight. In the cases of Enterococcus and Streptococcus sp., cells were plated to BHI agar plates, and BHI broth was used to determine MICs. […] Following dilutions, each well was seeded with 5×10^4 bacterial cells. All measurements were performed in 3 parallel replicates and to avoid possible edge effects in microwell plates, side rows (A and H) were filled with sterile medium. Following inoculations, plates were covered with lids and wrapped in polyethylene plastic bags to minimize evaporation but allow for O2 transfer. Plates were incubated at 37 °C under continuous shaking at 150 rpm for 18 hours. After incubation, OD600 of each well was measured using a BioTek Synergy 2 microplate reader.

[3] = S. aureus ATCC 43300 (MRSA), pH 5.5
[4] = S. aureus ATCC 43300 (MRSA), pH 7.3
[5] = S. aureus ATCC 700699 (VISA), pH 5.5
[6] = S. aureus ATCC 700699 (VISA), pH 7.3

Row | Compound | MIC [1] [µg/mL] | MIC [2, 3] [µg/mL] | MIC [2, 4] [µg/mL] | MIC [2, 5] [µg/mL] | MIC [2, 6] [µg/mL]
1 | Cc1[nH]c(C(=O)Nc2nc3ccc(C(=O)O)cc3s2)c(Cl)c1Cl [ULD1] | 0.0625 | 0.004 | 0.1 | 0.00025 | 0.04
2 | Cc1[nH]c(C(=O)Nc2nc3c(OCc4ccccc4)cc(C(=O)O)cc3s2)c(Cl)c1Cl [ULD2] | – | 0.008 | 0.06 | 0.0005 | 0.02
